“And” between values parts separate entries of the source, which are not always exact repeats. Equal entries are not always repeated. Where two headings read alike, the source gives them in different places. Where no end group is shown, it is not given here.
Assays:
Assay type in all cases: cell-based
[1] = biological target: T1, NMU2 F126A (Homo sapiens, UniProt Q9GZQ4, F126A); assay: TRUPATH assay, NMU2 mutant F126A
T1 construct: HA signal peptide (N); expressed in transfected cells; host or cells: HEK 293F
T1 sequence (Q9GZQ4 whole entry F126A): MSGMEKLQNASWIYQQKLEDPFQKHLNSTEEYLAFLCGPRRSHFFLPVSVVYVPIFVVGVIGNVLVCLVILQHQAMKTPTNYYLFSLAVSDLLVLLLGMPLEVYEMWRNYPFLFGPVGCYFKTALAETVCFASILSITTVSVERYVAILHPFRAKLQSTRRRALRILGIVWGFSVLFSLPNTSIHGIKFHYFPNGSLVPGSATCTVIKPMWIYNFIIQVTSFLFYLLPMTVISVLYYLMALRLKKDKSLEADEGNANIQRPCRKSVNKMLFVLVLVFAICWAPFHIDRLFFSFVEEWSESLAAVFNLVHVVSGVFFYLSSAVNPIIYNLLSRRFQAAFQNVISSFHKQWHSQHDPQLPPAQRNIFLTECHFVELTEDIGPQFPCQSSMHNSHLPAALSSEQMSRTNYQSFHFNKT
Procedure: (§1) The plasmids of Gαi1, Gβ3, and Gγ9 used for the TRUPATH assay were purchased from Addgene (TRUPATH Kit, #1000000163). NMU2 constructs of WT and mutants were constructed into a PTT5 vector (Invitrogen) with an N-terminal HA signal peptide followed by a Flag tag. HEK 293F cells were transiently transfected with WT or mutants of NMU2, Gαi1, Gβ3, and Gγ9 at an […] ratio of 4:1:1:1 with a total of 3500 ng plasmid DNA using a transfection reagent (PEI MAX 2000, Polysciences) and cultivated at 37 °C with 5 % CO2. Cells were collected after 48-h transfection. The expression level of the receptor was measured by incubating 10 μl cells with 15 μl TBS buffer supplemented with 4% bovine serum albumin, 20% (v/v) viability staining solution7-AAD (Invitrogen, Cat#00-6993-50), and ANTI-FLAG M2-FITC antibody (Sigma, F4049; 1:100 diluted by TBS) at 4 °C for 20 min. After incubation, 175 μl TBS buffer was added, and the fluorescence signal on the cell surface was detected by an FCM (flow cytometry) reader (Millipore). The cells were diluted with 1× HBSS (Hank’s balanced salt solution) balanced buffer supplemented with 25 mM HEPES, pH 7.4, and seeded onto the 96-well opaque cell culture plates (Beyotime) at a density of 18,000 cells per well by 60 μl. Freshly prepared 50 μM coelenterazine 400a (Nanolight Technologies) was added into the well by 10 μl. After a 5 min equilibration time in the darkness, plates were then read in a Synerg^TM H1 microplate reader (BioTek) with excitation at 395 nm and emission at 410 and 515 nm by serially three times. Then, 30 μl of 3.3× agonists were added into the wells with a gradient final concentration from 10^−4–10^−13 M. Plates were read immediately again by serially five times. Data were processed and analyzed following the method in the literature by using GraphPad Prism 8.0.

[2] = biological target: T2, NMU2 R288A (Homo sapiens, UniProt Q9GZQ4, R288A); assay: IP accumulation assay, NMU2 mutant R288A
T2 construct: HA signal peptide (N); expressed in transfected cells; host or cells: HEK 293F
T2 sequence (Q9GZQ4 whole entry R288A): as the sequence (Q9GZQ4 whole entry F126A) above, with A126F, R288A counted along it
Procedure: (§2) NMU2 constructs of WT and mutants were constructed into PTT5 vector (Invitrogen), as mentioned above. HEK 293F cells were transiently transfected with WT or mutants with total of 2000 ng plasmid DNA using transfection reagent (PEI MAX 2000, Polysciences) and cultivated at 37 °C with 5% CO2. Cells were collected after 48-h transfection. IP accumulation was tested by IP-One Gq assay kit (Cisbio Bioassays, 62IPAPEJ) following the instruction manual. In general, cells were resuspended with 1× HBSS buffer containing 20 mM LiCl (stimulation buffer) and seeded into the white 384-well microplates (Proxi Plate^TM-384 Plus, PerkinElmer) with a density of 20,000 per well. Cells were preincubated with 10^−5 M R-PSOP (provided by Boehringer Ingelheim company, Germany) and gradient concentration from 10^−4 to 10^−11 M of NMU-25 or gradient concentration 10^−4 to 10^−11 M of NMU-25 alone in stimulation buffer at 37 °C for 90 min. The cryptate-labeled anti-IP1 monoclonal antibody and d2-labeled IP1 were diluted with lysis & detection buffer (1:20) and added to each well by 3 μl, respectively. The plates were incubated at room temperature for 60 minutes and then read in a Synerg^TM H1 microplate reader (BioTek) with excitation at 330 nm and emission at 620 and 665 nm. The IP1 production was calculated by a standard dose–response curve and analyzed by GraphPad Prism 8.0.

[3] = biological target: T3, NMU2 E102A (Homo sapiens, UniProt Q9GZQ4, E102A); assay: IP accumulation assay, NMU2 mutant E102A; conditions: IP accumulation
T3 construct: HA signal peptide (N); expressed in transfected cells; host or cells: HEK 293F
T3 sequence (Q9GZQ4 whole entry E102A): as the sequence (Q9GZQ4 whole entry F126A) above, with E102A, A126F counted along it
Procedure: as §2

[4] = biological target: T4, NMU2 W281A (Homo sapiens, UniProt Q9GZQ4, W281A); assay: TRUPATH assay, NMU2 mutant W281A
T4 construct: HA signal peptide (N); expressed in transfected cells; host or cells: HEK 293F
T4 sequence (Q9GZQ4 whole entry W281A): as the sequence (Q9GZQ4 whole entry F126A) above, with A126F, W281A counted along it
Procedure: as §1

[5] = biological target: T5, NMU2 H285A (Homo sapiens, UniProt Q9GZQ4, H285A); assay: IP accumulation assay, NMU2 mutant H285A; conditions: IP accumulation
T5 construct: HA signal peptide (N); expressed in transfected cells; host or cells: HEK 293F, transient transfection, PTT5 vector
T5 sequence (Q9GZQ4 whole entry H285A): as the sequence (Q9GZQ4 whole entry F126A) above, with A126F, H285A counted along it
Procedure: as §2

[6] = biological target: T3, NMU2 E102A; assay: TRUPATH assay, NMU2 mutant E102A
Procedure: as §1, with “The cells were diluted with 1× HBSS (Hank’s balanced salt solution) balanced buffer supplemented with 25 mM HEPES, pH 7.4, and seeded onto the 96-well opaque cell culture plates (Beyotime) at a density of 18,000 cells per well by 60 μl. Freshly prepared 50 μM coelenterazine 400a (Nanolight Technologies) was added into the well by 10 μl.” left out, “Data were processed and analyzed following the method in the literature by using GraphPad Prism 8.0.” left out

[7] = biological target: T6, NMU2 (Homo sapiens, UniProt Q9GZQ4); assay: TRUPATH Gαi1βγ biosensor assay, WT NMU2; conditions: for NmU-25–induced G protein activation of NMU2: single replicates, in % (unit assumed)
T6 construct: HA signal peptide (N); expressed in transfected cells; host or cells: HEK 293F
T6 sequence (Q9GZQ4 whole entry): as the sequence (Q9GZQ4 whole entry F126A) above, with A126F counted along it
Procedure: as §1

[8] = biological target: T7, NMU2 F131L (Homo sapiens, UniProt Q9GZQ4, F131L); assay: IP accumulation assay, NMU2 mutant F131L; conditions: IP accumulation
T7 construct: HA signal peptide (N); expressed in transfected cells; host or cells: HEK 293F, transient transfection, PTT5 vector
T7 sequence (Q9GZQ4 whole entry F131L): as the sequence (Q9GZQ4 whole entry F126A) above, with A126F, F131L counted along it
Procedure: as §2

[9] = biological target: T8, NMU2 engineered construct (Homo sapiens, UniProt Q9GZQ4); assay: TRUPATH assay, engineered NMU2 construct used for cryo-EM
T8 construct: HA signal peptide (N); Flag (N); PreScission protease site (C); twin-strep (C); expressed in transfected cells
T8 sequence (Q9GZQ4 1-355 limits assumed, change not shown): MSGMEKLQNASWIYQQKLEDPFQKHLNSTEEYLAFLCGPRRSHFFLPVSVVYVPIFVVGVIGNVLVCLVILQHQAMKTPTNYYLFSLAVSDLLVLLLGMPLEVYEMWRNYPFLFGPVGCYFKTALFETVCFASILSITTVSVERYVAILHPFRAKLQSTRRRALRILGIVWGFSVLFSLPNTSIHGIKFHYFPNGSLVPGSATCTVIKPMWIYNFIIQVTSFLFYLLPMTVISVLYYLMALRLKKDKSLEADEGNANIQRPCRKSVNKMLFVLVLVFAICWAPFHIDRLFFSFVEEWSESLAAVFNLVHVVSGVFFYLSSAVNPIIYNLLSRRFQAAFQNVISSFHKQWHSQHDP
Excerpt: To facilitate expression and purification of the NmU-25–NMU2–Gi1 complex, a hemagglutinin (HA) signal peptide followed by a flag tag was introduced at the N terminus of NMU2, while the flexible C-terminal residues of the receptor (Q356-T415) were replaced by a PreScission protease site followed by a twin-strep affinity tag (Supplementary Fig. 1a, b). […] Dominant-negative Gαi1 (DNGαi1) containing five mutations (S47C, G202T, G203A, E245A, and A326S) was used to improve the stability of the complex as these mutations lead to a preference for a nucleotide-free state, and prevent the dissociation of Gβγ from the heterotrimer[20],[21]. Over 8700 movies were collected, and the structure of the NmU-25–NMU2–Gi1 complex was determined by cryo-EM single-particle analysis at a global nominal resolution of 3.3 Å (Supplementary Fig. 2a–f, Supplementary Table 1). […]
The plasmids of Gαi1, Gβ3, and Gγ9 used for the TRUPATH assay were purchased from Addgene (TRUPATH Kit, #1000000163). […] The expression level of the receptor was measured by incubating 10 μl cells with 15 μl TBS buffer supplemented with 4% bovine serum albumin, 20% (v/v) viability staining solution7-AAD (Invitrogen, Cat#00-6993-50), and ANTI-FLAG M2-FITC antibody (Sigma, F4049; 1:100 diluted by TBS) at 4 °C for 20 min. […] Data were processed and analyzed following the method in the literature by using GraphPad Prism 8.0.

[10] = read-out: pEC50 mean±SEM (converted)
[11] = read-out: pEC50±SEM, NmU-25 alone (converted)

FRVDEEFQSPFASQSRGYFLFRPRN-NH2 [NmU-25]
EC50 ratio EC50(mutant)/EC50(WT) [1]: 18
Span (window between Emax and minimal agonist response) [1]: 27±10 % of WT
G protein activation (TRUPATH), dose-response point ([1]; Log [agonist] M -4): 26.6728 and 20.7775
ΔpEC50 (from WT) ([1]; individual experiments): -2.148 and -1.125 and -1.6853
EC50 ([1]; read-out: EC50): 625 nM
EC50 [1, 10]: 631 nM
NmU-25-induced IP accumulation (in words) [2]: totally eliminated
EC50 ([3]; read-out: EC50, NmU-25 alone): 1700 nM
EC50 [3, 11]: 1700 nM
EC50 ratio EC50(mutant)/EC50(WT) [4]: 24
Span (window between Emax and minimal agonist response) [4]: 55±9 % of WT
G protein activation (TRUPATH), dose-response point ([4]; Log [agonist] M -4): 31.1201 and 49.629
ΔpEC50 (from WT) ([4]; individual experiments): -1.673 and -1.545 and -1.465
EC50 ([4]; read-out: EC50): 814 nM
EC50 [4, 10]: 813 nM
EC50 ([5]; read-out: EC50, NmU-25 alone): 214 nM
EC50 [5, 11]: 214 nM
potency (in words) [6]: complete loss of potency
potency on Gi1, Gq and G11 signaling pathways (in words) ([7]; TRUPATH, peer review file): highest potency by coupling Gi1
EC50 ratio EC50(mutant)/EC50(WT) ([7]; WT): 1
Span (window between Emax and minimal agonist response) ([7]; WT): 100±5 % of WT
NmU-25–induced G protein activation of NMU2 ([7]; WT, Log [NmU-25] M -4): 96.1513 and 120.034 and 131.645 and 132.135 and 112.945 and 100.303 and 111.674 and 103.511
NmU-25–induced G protein activation of NMU2 ([7]; WT, Log [NmU-25] M -5): 94.5176 and 100.381 and 95.0326
NmU-25–induced G protein activation of NMU2 ([7]; WT, Log [NmU-25] M -8): 14.7563 and 14.6245 and 25.1777 and 27.4903 and 32.4994 and 60.5946 and 16.3263 and -20.6053 and 85.0469 and -9.5497 and 77.5389 and 54.5579 and 12.0114
NmU-25–induced G protein activation of NMU2 ([7]; WT, Log [NmU-25] M -9): 14.8034 and 2.989 and 12.9021 and 10.3696 and 7.38 and -3.464 and 27.6247 and 0.6791 and -7.166 and 14.4877 and 22.3774 and 22.0623 and -4.444
NmU-25–induced G protein activation of NMU2 ([7]; WT, Log [NmU-25] M -10): -1.975 and -9.668 and -7.55 and 11.1071 and -8.093 and -25.3752 and 0.6481 and -23.592 and -13.8096 and 16.7093 and 3.342 and 8.321 and 30.8279
NmU-25–induced G protein activation of NMU2 ([7]; WT, Log [NmU-25] M -11): -12.488 and 4.703 and -8.667 and -24.4881 and 6.542 and 34.4845 and -19.0587 and 46.905 and 31.0606 and -18.1089 and -17.8891 and -27.6836
EC50 ([7]; WT, agonist-induced G protein activation, HEK 293F, read-out: EC50): 34 nM
EC50 ([7]; WT, earlier manuscript version quoted in peer review file, read-out: EC50): 37 nM
EC50 ([7]; WT, read-out: pEC50 mean±SEM (converted)): 34.7 nM
EC50 ([8]; read-out: EC50, NmU-25 alone): 11 nM
EC50 [8, 11]: 10.7 nM
G protein activation (TRUPATH), dose-response point ([9]; Log [agonist] M -5): 104.095 and 133.885 and 136.246
G protein activation (TRUPATH), dose-response point ([9]; Log [agonist] M -6): 76.3981 and 114.895 and 125.038

Reference: paper PMC9794833, “Ligand recognition and activation of neuromedin U receptor 2” (Nature Communications, 2022)
